Source: patent US20250179059A1 (The Regents of the University of California, priority 2021, published 2025)
Read-outs that look alike come from different tables or passages of the source.

What was measured:
[1] = tested on: human SKM-1 acute myeloid leukemia cells; test: SKM-1 antiproliferation cell-based assay (ATPlite); details: Homo sapiens
Summary of the method: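 Log-phase cells in RPMI 1640/15% FBS were seeded at 34722 cells/mL and exposed for 4 days to nine-concentration DMSO serial dilutions in triplicate. Viability was read as ATP luminescence (ATPlite 1step), and IC50 values came from variable-slope non-linear regression.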

[2] = target: T1, human BRD4 bromodomain II (Homo sapiens, UniProt O60885); test: Bromodomain binding assay (AlphaScreen), BRD4 BDII
T1 construct: human BRD4 bromodomain II [based on Genbank NM_058243, residues 349-460]; host or cells: E. coli
Summary of the method: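 Inhibition of acetyl-H4 peptide binding to human BRD4 bromodomains is measured by bead-based proximity (AlphaScreen) in pH 7.5 HEPES buffer containing 0.05% CHAPS and 0.1% BSA. Ten compound concentrations in 3-fold steps give competitive binding IC50s.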

[3] = SKM-1, 96 h, SKM-1 antiproliferation assay, 4 days, Table C2
[4] = AlphaScreen assay, Table C2, read-out: BRD4 BDII IC50
[5] = SKM-1, SKM-1 antiproliferation assay
[6] = BRD4 BDII AlphaScreen assay, read-out: BRD4 BD2 IC50

SMILES | GI50 [1, 3] | IC50 [2, 4] | GI50 [1, 5] | IC50 [2, 6]
C[C@@H]1CN(c2cc(-c3cc(F)cc(-c4ccc(-n5ccn(C)c5=O)c(Cl)c4)c3O)cc3[nH]ncc23)CCN1 [Example 543, (R)-1-(3-chloro-5′-fluoro-2′-hydroxy-3′-(4-(3-methylpiperazin-1-yl)-1H-indazol-6-yl)-[1,1′-biphenyl]-4-yl)-3-methyl-1H-imidazol-2(3H)-one] | 0.3 to 30 nM | 0.01 to 1 nM | – | –
Cn1ccn(-c2ccc(-c3cc(F)cc(-c4ccnc(N5CCNc6ccccc65)c4)c3O)cc2Cl)c1=O [Example 532, 1-(3-chloro-3′-(2-(3,4-dihydroquinoxalin-1(2H)-yl)pyridin-4-yl)-5′-fluoro-2′-hydroxy-[1,1′-biphenyl]-4-yl)-3-methyl-1H-imidazol-2(3H)-one] | ≥ 3000 nM | > 100 nM | – | –
Cn1ccn(-c2ccc(-c3cc(F)cc(-c4ccnc(N5CC[C@H](N)C5)c4)c3O)cc2Cl)c1=O [Example 423, (S)-1-(3′-(2-(3-aminopyrrolidin-1-yl)pyridin-4-yl)-3-chloro-5′-fluoro-2′-hydroxy-[1,1′-biphenyl]-4-yl)-3-methyl-1H-imidazol-2(3H)-one] | 0.3 to 30 nM | 0.01 to 1 nM | – | –
Cn1cc(-c2cc(F)cc(-c3ccc(-n4ccn(C)c4=O)c(Cl)c3)c2O)cc(N2CC[C@H](N)C2)c1=O [Example 422, (S)-3-(3-aminopyrrolidin-1-yl)-5-(3′-chloro-5-fluoro-2-hydroxy-4′-(3-methyl-2-oxo-2,3-dihydro-1H-imidazol-1-yl)-[1,1′-biphenyl]-3-yl)-1-methylpyridin-2(1H)-one] | 0.3 to 30 nM | 0.01 to 1 nM | – | –
CN1CCN(c2ccc(-c3cccc(-c4cncc(N5CC6(CNC6)C5)c4)c3O)cc2Cl)C1=O [Example 335, 1-(3′-(5-(2,6-diazaspiro[3.3]heptan-2-yl)pyridin-3-yl)-3-chloro-2′-hydroxy-[1,1′-biphenyl]-4-yl)-3-methylimidazolidin-2-one] | 300 to 3000 nM | 1 to 10 nM | – | –

The next lines start with the values.

GI50 [1, 3] | IC50 [2, 4] | GI50 [1, 5] | IC50 [2, 6] | SMILES
– | – | 30 to 300 nM | 1 to 10 nM | CC(C)N1CCC[C@@]12CCN(c1cccc(-c3cc(F)cc(-c4ccc(-n5ccn(C)c5=O)c(Cl)c4)c3O)c1)C2 [Example 966, (S)-1-(3-chloro-5′-fluoro-2′-hydroxy-3″-(1-isopropyl-1,7-diazaspiro[4.4]nonan-7-yl)-[1,1′:3′,1″-terphenyl]-4-yl)-3-methyl-1,3-dihydro-2H-imidazol-2-one]
0.3 to 30 nM | 0.01 to 1 nM | – | – | Cn1ccn(-c2ccc(-c3cc(F)cc(-c4ccnc(N5CCN(C[C@H](O)CO)CC5)c4)c3O)cc2Cl)c1=O [Example 621, (S)-1-(3-chloro-3′-(2-(4-(2,3-dihydroxypropyl)piperazin-1-yl)pyridin-4-yl)-5′-fluoro-2′-hydroxy-[1,1′-biphenyl]-4-yl)-3-methyl-1H-imidazol-2(3H)-one]
0.3 to 30 nM | 0.01 to 1 nM | – | – | Cn1ccn(-c2ccc(-c3cc(F)cc(-c4ccnc(N5CCN[C@H](C(C)(C)O)C5)c4)c3O)cc2Cl)c1=O [Example 639, (S)-1-(3-chloro-5′-fluoro-2′-hydroxy-3′-(2-(3-(2-hydroxypropan-2-yl)piperazin-1-yl)pyridin-4-yl)-[1,1′-biphenyl]-4-yl)-3-methyl-1H-imidazol-2(3H)-one]
– | – | 300 to 3000 nM | > 100 nM | Cn1ccn(-c2ccc(-c3cc(F)cc(-c4ccccc4CN4CCNCC4)c3O)cc2Cl)c1=O [Example 889]
0.3 to 30 nM | 1 to 10 nM | – | – | CCC[C@@H]1CN(c2cc(-c3cc(F)cc(-c4ccc(-n5ccn(C)c5=O)c(Cl)c4)c3O)cc3[nH]ncc23)CCN1 [Example 592, (R)-1-(3-chloro-5′-fluoro-2′-hydroxy-3′-(4-(3-propylpiperazin-1-yl)-1H-indazol-6-yl)-[1,1′-biphenyl]-4-yl)-3-methyl-1H-imidazol-2(3H)-one]
0.3 to 30 nM | 0.01 to 1 nM | – | – | Cn1ccn(-c2ccc(-c3cc(F)cc(-c4ccnc(N5CCC(C)(O)C5)c4)c3O)cc2Cl)c1=O (stereo not shown) [Example 685, 1-(3-chloro-5′-fluoro-2′-hydroxy-3′-(2-(3-hydroxy-3-methylpyrrolidin-1-yl)pyridin-4-yl)-[1,1′-biphenyl]-4-yl)-3-methyl-1H-imidazol-2(3H)-one]
